In ChEMBL document CHEMBL1128853, “Zn(II)-chelating inhibitors of carboxypeptidase A” (Bioorg Med Chem Lett, 1995):

Test: Binding affinity against Carboxypeptidase A

Ki | Compound
29 µM | NC(=O)C(CSCCS)Cc1ccccc1 (stereo unspecified)
790 µM | O=C(O)c1cccc(C(=O)NC(Cc2ccccc2)C(=O)O)n1 (stereo unspecified)
180 µM | O=C(NC(Cc1ccccc1)C(=O)O)c1cnccn1 (stereo unspecified)
4.4 µM | O=C(CC(Cc1ccccc1)C(=O)O)c1ccccc1S (stereo unspecified)
82 µM | O=C(CC(Cc1ccccc1)C(=O)O)c1ccccn1 (stereo unspecified)
660 µM | O=C(O)C(CSCCSCc1ccccc1)Cc1ccccc1 (stereo unspecified)
> 300 µM | O=C(CC/C(=N\O)c1ccccn1)NC(Cc1ccccc1)C(=O)O (stereo unspecified)
450 µM | O=C(O)C(Cc1ccccc1)(Cc1ccccc1)SCCSc1ccccc1

Second part, the compound before the results:

Compound | Ki
O=C(O)C(CSCCS)Cc1ccccc1 (stereo unspecified) | 4.2 µM
O=C(O)C(Cc1ccccc1)NC/C(=N\O)c1ccccn1 (stereo unspecified) | 580 µM
O=C(O)CC(CSCCS)Cc1ccccc1 (stereo unspecified) | 19 µM
CCCCCC(Cc1ccccc1)C(=O)O (stereo unspecified) | 620 µM
O=C(O)C(Cc1ccccc1)SCCSc1ccccc1 (stereo unspecified) | 670 µM
O=C(O)C(CCCCS)Cc1ccccc1 (stereo unspecified) | 45 µM
O=C(NC(Cc1ccccc1)C(=O)O)c1ccccn1 (stereo unspecified) | 370 µM
NC(=O)C(CCSCCS)Cc1ccccc1 (stereo unspecified) | 92 µM
O=C(O)C(Cc1ccccc1)SCCS (stereo unspecified) | 21 µM
CCCSCC(Cc1ccccc1)C(=O)O (stereo unspecified) | 340 µM
O=C(Nc1ccccc1)C(CSCCS)Cc1ccccc1 (stereo unspecified) | 34 µM
O=C(O)C(CCc1ccccc1S)Cc1ccccc1 (stereo unspecified) | 5.8 µM
O=C(O)C(C/C(=N\O)c1ccccn1)Cc1ccccc1 (stereo unspecified) | > 300 µM
